In patent publication US8198279B2, “Pyrido[2,3-b]pyrazin-8-substituted compounds and their use” (Institute of Cancer Research: Royal Cancer Hospital (The), priority 2007, dated 2012):

Columns and labels:
[1] = target: T1, B-RAF (Homo sapiens, UniProt P15056, V600E); test: DELFIA Kinase Assay; type: biochemical; conditions: 100 μM ATP, GST-MEK substrate
T1 construct: made in house
How it was run: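 Recombinant B-RAF (V600E) with GST-MEK substrate was preincubated with compound for 10 min at room temperature, then reacted with 100 μM ATP for 45 min on milk-preblocked wells, with antibody detection by DELFIA europium fluorescence. Response is taken as % of DMSO control after empty-vector blank subtraction; IC50 is from a variable-slope sigmoidal fit, mean of usually three independent runs.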

[2] = system: pERK; test: Cell Based Phospho-ERK Assay; conditions: 6 h, 6 hours incubation with test compound
Description: Biological Methods—Cell Based Phosho-ERK Assay
Compounds were assessed using a cell-based assay which was performed according to the following protocol.
Plate out 16,000 cells/well in 99 μL medium in a 96-well plate.
• 1. Add 1 μL inhibitor to the cells (total […] solution). • 2. Incubate the cells with test compound for 6 hours at 37° C. • 3. Aspirate off the solution from all of the wells. • 4. Fixate the cells with 100 μL 4% formaldehyde/0.25% Triton X-100 PBS per well. • 5. Incubate the plate for 1 hour at 4° C. • 6. Aspirate off the fixing solution and add 300 μL TBS per well. • 7. Leave the plate overnight at 4° C. Day 2: • 1. Wash the plate 2× with 200 μL PBS per well. • 2. Block with 100 μL 5% dried milk in TBS. • 3. Incubate the plate for 20 minutes at 37° C. • 4. Wash the plate 2× with 0.1% tween/H2O. • 5. Add 50 μL of 3 μg/mL primary antibody pERK (Sigma M8159), diluted in 5% milk powder/TBS, to each well. • 6. Incubate the plate for 2 hours at 37° C. • 7. Wash the plate 3× with 0.1% tween/H2O. • 8. Add 50 μL of 0.45 μg/mL secondary Europium-labelled anti-mouse antibody (Perkin Elmer) to each well. • 9. Incubate the plate for 1 hour at 37° C. • 10. Wash the plate 3× with 0.1% tween/H2O. • 11. Add 100 μL enhancement solution (Perkin Elmer) to each well. • 12. Leave the plate for approximately 10 minutes at room temperature before gently shaking the plate. • 13. Read Europium Time Resolved Fluorescence in Victor2. • 14. Wash the plate 2× with 0.1% tween/H2O. • 15. Measure the protein concentration with BCA (Sigma) by adding 200 μL of solution per well. • 16. Incubate the plate for 30 minutes at 37° C. • 17. Read absorbance levels at 570 nm in a plate reader.
Note that Europium counts are normalised for protein levels by dividing counts by absorbance.
Values for the blank (no cells) are subtracted from all values. The DMSO controls are set as 100% activity and assay points (the response) are calculated as a percentage of the DMSO control. Data are plotted using Graphpad Prism software and a non-linear regression line is calculated using a variable slope sigmoidal dose-response equation (Y=Bottom+(Top−Bottom)/(1+10^((LogEC50−X)*HillSlope)) where X is the logarithm of concentration. Y is the response). The IC50 generated by this procedure is the concentration of the drug that produces a percentage control fluorescence value midway between the saturation, and zero-effect plateaus. Three independent assays are usually performed and the mean IC50 is reported.

[3] = system: WM266.4 melanoma cells; test: SRB Cell Proliferation Assay (SRB GI50); type: cell-based; conditions: Homo sapiens, WM 266-4, 144 h, 6 days growth
Description: Biological Methods —SRB Cell Proliferation Assay (SRB GI50)
Cultures of WM266.4 melanoma cells are routinely cultured in DMEM/10% foetal bovine serum, at 37° C., in 5% CO2 water saturated atmosphere. Cultures are maintained in exponential growth phase by sub-culturing before having become confluent (3-5 day intervals). Single cell suspensions are prepared by harvesting an 80 cm^2 tissue culture flask with 5 mL commercial trypsin EDTA. After 5 minutes, the detached cells are mixed with 5 mL fully complemented culture medium and centrifugally pelleted (1000 rpm for 7 minutes). After aspirating the supernatant, the cell pellet is re-suspended in 10 mL fresh medium and the cells fully disaggregated by drawing the whole volume up/down 5 times through a 19-gauge needle. The concentration of the cells is determined using a haemocytometer (1/10 dilution). A suitable volume to give at least a 2-fold excess for the number of tests being conducted, typically 100-200 mL, is prepared by diluting the cell suspension to 10,000/mL, and 100 μL/well dispensed into 96 well plates using a programmable 8-channel peristaltic pump, giving 1000 cells/well, leaving column 12 blank. The plates are returned to the incubator for 24 hours to allow the cells to re-attach.
The compounds being tested are prepared at 20 mM in dimethylsulphoxide. Aliquots (200 μL) are diluted into 20 mL culture medium giving 200 μM, and 10 serial dilutions of 3× performed by transferring 5 mL to 10 mL. Aliquots (100 μL) of each dilution are added to the wells, using an 8-channel pipettor, thus performing a final further 2× dilution, and giving doses ranging from 100 μM to 0.005 μM. Column 11 receives plain culture medium only. Each compound is tested in quadruplicate, each replicate being the average of four wells, and two plates per compound.
After a further 6 days growth, the plates are emptied, and the cells are fixed in 10% trichloroacteic acid for 10 minutes on ice. After thorough rinsing in running tap water, the plates are dried, and stained by adding 50 μL of a solution of 0.1% sulphorhodamine-B in 1% acetic acid, for 10 minutes at room temperature. The stain is poured out and the plates thoroughly rinsed under a stream of 1% acetic acid, thus removing unbound stain, and dried. The bound stain is taken into solution by addition of 150 μL Tris buffer pH 8, followed by 10 minutes on a plate-shaker (approximately 500 rpm). The absorbance at 540 nm in each well (being proportional to the number of cells present) is determined using a plate reader.
After averaging the results in rows A-D and E-H, the blank value (row 12) is subtracted, and results expressed as percentage of the untreated value (row 11). […] The GI50 generated by this procedure is the concentration of the drug that produces a percentage control A540 midway between the saturation, and zero-effect plateaus.

T1 sequence (P15056 whole entry V600E): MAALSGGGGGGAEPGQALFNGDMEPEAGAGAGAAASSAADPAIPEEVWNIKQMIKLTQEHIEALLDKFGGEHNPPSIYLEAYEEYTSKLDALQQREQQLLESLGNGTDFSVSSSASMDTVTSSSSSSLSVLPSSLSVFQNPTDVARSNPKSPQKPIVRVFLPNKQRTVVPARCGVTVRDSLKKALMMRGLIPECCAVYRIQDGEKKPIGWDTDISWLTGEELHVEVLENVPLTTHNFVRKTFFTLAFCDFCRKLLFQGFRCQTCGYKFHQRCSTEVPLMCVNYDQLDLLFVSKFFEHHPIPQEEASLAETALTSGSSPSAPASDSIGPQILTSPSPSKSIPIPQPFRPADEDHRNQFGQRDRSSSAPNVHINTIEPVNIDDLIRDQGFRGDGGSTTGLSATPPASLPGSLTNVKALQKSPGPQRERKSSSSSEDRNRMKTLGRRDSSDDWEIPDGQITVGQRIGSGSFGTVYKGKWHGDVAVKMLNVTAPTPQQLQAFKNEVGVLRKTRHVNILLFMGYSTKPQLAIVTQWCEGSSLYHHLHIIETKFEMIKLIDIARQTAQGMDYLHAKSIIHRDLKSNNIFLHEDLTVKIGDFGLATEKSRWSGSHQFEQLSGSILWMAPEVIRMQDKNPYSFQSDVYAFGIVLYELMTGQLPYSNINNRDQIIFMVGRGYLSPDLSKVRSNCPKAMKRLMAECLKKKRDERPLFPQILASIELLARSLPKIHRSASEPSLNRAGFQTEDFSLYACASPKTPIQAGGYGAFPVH

Compound | IC50 [1] [nM] | IC50 [2] [nM] | GI50 [3] [nM]
COc1ccc(-n2nc(C(C)(C)C)cc2NC(=O)Nc2ccc(Oc3ccnc4[nH]c(=O)c(C)nc34)cc2SC)cn1 [AA-064, 1-(3-tert-butyl-1-(6-methoxypyridin-3-yl)-1H-pyrazol-5-yl)-3-(4-(2-methyl-3-oxo-3,4-dihydropyrido[2,3-b]pyrazin-8-yloxy)-2-(methylthio)phenyl)urea] | < 100 | < 1000 | < 1000
CSc1cc(Oc2ccnc3[nH]c(=O)c(C)nc23)ccc1NC(=O)Nc1cc(C(C)(C)C)nn1-c1ccccc1 [AA-065, 1-(3-tert-butyl-1-phenyl-1H-pyrazol-5-yl)-3-(4-(2-methyl-3-oxo-3,4-dihydropyrido[2,3-b]pyrazin-8-yloxy)-2-(methylthio)phenyl)urea] | < 100 | < 1000 | < 1000
CSc1cc(Oc2ccnc3ncc(=O)[nH]c23)ccc1NC(=O)Nc1cc(C(C)(C)C)nn1-c1ccccc1 [AA-066, 1-(3-tert-butyl-1-phenyl-1H-pyrazol-5-yl)-3-(2-(methylthio)-4-(2-oxo-1,2-dihydropyrido[2,3-b]pyrazin-8-yloxy)phenyl)urea] | 100 to 1000 | < 1000 | < 1000
CSc1cc(Oc2ccnc3[nH]c(=O)cnc23)ccc1NC(=O)Nc1cc(C(C)(C)C)nn1-c1ccccc1 [AA-067, 1-(3-tert-butyl-1-phenyl-1H-pyrazol-5-yl)-3-(2-(methylthio)-4-(3-oxo-3,4-dihydropyrido[2,3-b]pyrazin-8-yloxy)phenyl)urea] | < 100 | < 1000 | < 1000
O=C(Nc1cncc(C(F)(F)F)c1)Nc1ccc(Oc2ccnc3[nH]c(=O)cnc23)cc1F [AA-069, 1-(2-fluoro-4-(3-oxo-3,4-dihydropyrido[2,3-b]pyrazin-8-yloxy)phenyl)-3-(5-(trifluoromethyl)pyridin-3-yl)urea] | < 100 | 1000 to 10000 | 1000 to 10000
CC(C)(C)c1cc(NC(=O)Nc2ccc(Oc3ccnc4nc(N5CCOCC5)cnc34)cc2F)n(-c2ccccc2)n1 [AA-071, 1-(3-Tert-butyl-1-phenyl-1H-pyrazol-5-yl)-3-(2-fluoro-4-(3-morpholinopyrido[3,2-b]pyrazin-8-yloxy)phenyl)urea] | 100 to 1000 | < 1000 | < 1000
O=C(Nc1ccc(Oc2ccnc3[nH]c(=O)c(=O)[nH]c23)cc1F)Nc1cc(C(F)(F)F)ccc1F [AA-072, 1-(4-(2,3-Dioxo-1,2,3,4-tetrahydropyrido[3,2-b]pyrazin-8-yloxy)-2-fluorophenyl)-3-(2-fluoro-5-(trifluoromethyl)phenyl)urea] | < 100 | < 1000 | 1000 to 10000
Cc1ccc(-n2nc(C(C)(C)C)cc2NC(=O)Nc2ccc(Oc3ccnc4[nH]c(=O)c(=O)[nH]c34)cc2F)cc1 [AA-074, 1-(3-Tert-butyl-1-p-tolyl-1H-pyrazol-5-yl)-3-(4-(2,3-dioxo-1,2,3,4-tetrahydropyrido[3,2-b]pyrazin-8-yloxy)-2-fluorophenyl)urea] | < 100 | < 1000 | < 1000
CC(C)(C)c1cc(NC(=O)Nc2cccc(Oc3ccnc4[nH]c(=O)cnc34)c2)n(-c2ccccc2)n1 [AA-075, 1-(3-tert-butyl-1-phenyl-1H-pyrazol-5-yl)-3-(3-(3-oxo-3,4-dihydropyrido[2,3-b]pyrazin-8-yloxy)phenyl)urea] | < 100 | < 1000 | < 1000
CC(C)(C)c1cc(NC(=O)Nc2cccc(Oc3ccnc4ncc(=O)[nH]c34)c2)n(-c2ccccc2)n1 [AA-076, 1-(3-tert-butyl-1-phenyl-1H-pyrazol-5-yl)-3-(3-(2-oxo-1,2-dihydropyrido[2,3-b]pyrazin-8-yloxy)phenyl)urea] | 100 to 1000 | 1000 to 10000 | 1000 to 10000
Cc1ccc(-n2nc(C(C)(C)C)cc2NC(=O)Nc2ccc(Oc3ccnc4[nH]c(=O)c(N)nc34)c3ccccc23)cc1 [AA-077, 1-(4-(2-amino-3-oxo-3,4-dihydropyrido[2,3-b]pyrazin-8-yloxy)naphthalen-1-yl)-3-(3-tert-butyl-1-p-tolyl-1H-pyrazol-5-yl)urea] | 100 to 1000 | < 1000 | < 1000
Cc1ccc(-n2nc(C(C)(C)C)cc2NC(=O)Nc2cccc(Oc3ccnc4[nH]c(=O)c(C)nc34)c2)cc1 [AA-078, 1-(3-tert-butyl-1-p-tolyl-1H-pyrazol-5-yl)-3-(3-(2-methyl-3-oxo-3,4-dihydropyrido[2,3-b]pyrazin-8-yloxy)phenyl)urea] | 100 to 1000 | < 1000 | < 1000
Nc1nc2nccc(Oc3ccc(NC(=O)Nc4cc(C(F)(F)F)ccc4F)c4ccccc34)c2[nH]c1=O [AA-079, 1-(4-(3-amino-2-oxo-1,2-dihydropyrido[2,3-b]pyrazin-8-yloxy)naphthalen-1-yl)-3-(2-fluoro-5-(trifluoromethyl)phenyl)urea] | < 100 | < 1000 | < 1000
CC(C)(C)c1cc(NC(=O)Nc2ccc(Oc3ccnc4[nH]c(=O)c(N)nc34)c3ccccc23)n(-c2ccccc2)n1 [AA-080, 1-(4-(2-amino-3-oxo-3,4-dihydropyrido[2,3-b]pyrazin-8-yloxy)naphthalen-1-yl)-3-(3-tert-butyl-1-phenyl-1H-pyrazol-5-yl)urea] | < 100 | < 1000 | < 1000
CC(C)(C)c1cc(NC(=O)Nc2ccc(Oc3ccnc4nc(N)c(=O)[nH]c34)c3ccccc23)n(-c2ccccc2)n1 [AA-081, 1-(4-(3-amino-2-oxo-1,2-dihydropyrido[2,3-b]pyrazin-8-yloxy)naphthalen-1-yl)-3-(3-tert-butyl-1-phenyl-1H-pyrazol-5-yl)urea] | 100 to 1000 | < 1000 | < 1000
O=C(Nc1cc(C(F)(F)F)ccc1F)Nc1ccc(Oc2ccnc3nc(C(F)(F)F)c(=O)[nH]c23)c2ccccc12 [AA-083, 1-(2-fluoro-5-(trifluoromethyl)phenyl)-3-(4-(2-oxo-3-(trifluoromethyl)-1,2-dihydropyrido[2,3-b]pyrazin-8-yloxy)naphthalen-1-yl)urea] | 100 to 1000 | 1000 to 10000 | 1000 to 10000
